This is an account of results in ChEMBL document CHEMBL1201862, “PubChem BioAssay data set” (2004).

Molecules are shown by their SMILES.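 Test compounds were applied to cells in 96-well plates for 48 hours at 5 doses. GI50 = concentration required for 50% inhibition of growth.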 Calls of active or inactive are those of the source. Rule as the data show it: active = GI50 up to about 1.1 µM and inactive = higher.

Test systems include COLO 205; EKVX; HCC 2998; HCT-15; HOP-92; HT-29; KM12; MOLT-4; Malme-3M; NCI-H226; NCI-H23; OVCAR-3; OVCAR-4; OVCAR-5; SF-268; SF-539; SNB-19; SR; UACC-257.
Common to all, as to assay: growth of human tumour cells (NCI), 48 h

In the case of `Cc1cccc(/C=N/NC(=S)NCc2ccccn2)n1`, the GI50 in the assay on COLO 205 was 36.1 µM (inactive); with EKVX, 37.2 µM (inactive); with HCC 2998, 41.7 µM (inactive); in the assay with HCT-15, 23.7 µM; in the assay with HOP-92, 25.9 µM (inactive); with HT-29, 27.7 µM (inactive). The GI50 was 40.3 µM (inactive) in the assay with KM12; 16.5 µM (inactive) in the assay on MOLT-4; 22.1 µM (inactive) with Malme-3M; 29.3 µM (inactive) in the assay with NCI-H226; 40.8 µM (inactive) in the assay on NCI-H23; 74.5 µM (inactive) in the assay with OVCAR-3. Further, the GI50 with OVCAR-4 is > 100 µM (inactive); in the assay on OVCAR-5 it was > 77.1 µM (inactive); in the assay on SF-268 it was 20 µM (inactive); with SF-539, 23.4 µM (inactive); in the assay on SNB-19, 47.5 µM (inactive); with SR it was 38.9 µM (inactive). In addition, the GI50 with UACC-257 was 41.7 µM (inactive).

Consider `Cc1ccn2c(=O)cc(-c3ccccc3)nc2c1`, for which the GI50 was > 100 µM (inactive) in the assay on COLO 205; 44.7 µM (inactive) in the assay on EKVX; > 100 µM (inactive) in the assay on HCC 2998; above 100 µM with HCT-15; 74 µM (inactive) in the assay with HOP-92; > 100 µM (inactive) in the assay with HT-29. Besides, the GI50 in the assay on KM12 is 68.9 µM (inactive); with MOLT-4 it was > 100 µM (inactive); in the assay on Malme-3M it was > 100 µM (inactive); in the assay on NCI-H226 it was > 100 µM (inactive); with NCI-H23 it was > 100 µM (inactive); in the assay on OVCAR-3 it was > 100 µM (inactive). For the same molecule, the GI50 in the assay with OVCAR-4, in the assay on OVCAR-5, in the assay with SF-268, in the assay with SF-539, with SNB-19 and in the assay with SR was > 100 µM (inactive) each time. Further, the GI50 with UACC-257 is > 100 µM (inactive).

Turning to `Cc1ccc(-c2n[nH]c(=O)n2/N=C\c2ccccc2)cc1`, the GI50 in the assay with COLO 205 was 74.1 µM (inactive); in the assay with EKVX, 24.9 µM (inactive); with HCC 2998, > 87.3 µM (inactive); in the assay with HCT-15, 72.6 µM; in the assay on HOP-92, 21 µM (inactive); in the assay with HT-29, > 91 µM (inactive). Besides, the GI50 is 54 µM (inactive) with KM12; > 79.6 µM (inactive) with MOLT-4; > 91.2 µM (inactive) in the assay on Malme-3M; 71.4 µM (inactive) in the assay with NCI-H226; 68.9 µM (inactive) in the assay with NCI-H23; > 84.1 µM (inactive) with OVCAR-3. For the same molecule, the GI50 is 61.5 µM (inactive) in the assay on OVCAR-4; > 100 µM (inactive) in the assay on OVCAR-5; 28.4 µM (inactive) with SF-268; 76.2 µM (inactive) with SF-539; 46.3 µM (inactive) in the assay with SNB-19; > 72.6 µM (inactive) in the assay on SR. Besides, the GI50 in the assay on UACC-257 was > 100 µM (inactive).

Consider `O=C(O)C(O)C(O)C(O)C(=O)CO` (stereo unspecified), for which the GI50 with COLO 205 was > 100 µM (inactive); in the assay on EKVX, > 100 µM (inactive); in the assay with HCC 2998, > 100 µM (inactive); in the assay on HCT-15, above 100 µM; in the assay with HOP-92 it was > 100 µM (inactive); in the assay with HT-29, > 100 µM (inactive). Also, the GI50 in the assay with KM12, in the assay on MOLT-4, in the assay on Malme-3M, in the assay with NCI-H226, with NCI-H23 and with OVCAR-3 was > 100 µM (inactive) in each case. Further, the GI50 in the assay with OVCAR-4, with OVCAR-5, in the assay with SF-268, in the assay on SF-539, with SNB-19 and in the assay on SR was > 100 µM (inactive) each time. Moreover, the GI50 with UACC-257 is > 100 µM (inactive).
